Patent publication US9758541B2 (priority 2013, dated 2017)

Key:
[1] = system: MDA-MB-231 cells (non-hormone-dependent breast cancer cells); format: cell-based
[2] = system: PC3 cells (non-hormone-dependent prostate cancer cells); settings: read-out: IC50 (μM) of P53, Table 2, 72 h exposure, MTS
[3] = system: Mia-PaCa cells (pancreatic cancer cells); settings: read-out: IC50 (μM) of P53, Table 2, 72 h exposure, MTS

Substance | IC50 [1] [µM] | IC50 [2] [µM] | IC50 [3] [µM]
1,1-bis-(4-hydroxyphenyl)-5-hydroxy-2-ruthenocenyl-pent-1-en [W3] | 12.5 | – | –
2,3-Dihydro-3-hydroxy-2-[4-ferrocenyl-5,5-bis-(4-hydroxyphenyl)-pent-4-enyl]-1H-isoindol-1-one [P710] | 0.59 | – | –
2,3-Dihydro-3-methoxy-2-[5-ferrocenyl-6,6-bis-(4-hydroxyphenyl)-hex-5-enyl]-1H-isoindol-1-one [P727] | 1.63 | – | –
2-ferrocenyl-1,1-bis-(4-hydroxyphenyl)-5-dimethylamino-pent-1-ene [P697] | 2.53 | – | –
2-ferrocenyl-1,1-bis-(4-hydroxyphenyl)-5-hydroxy-pent-1-ene [P53] | – | 4.43 | 1.23
2-ferrocenyl-1-(4-hydroxyphenyl)-5-hydroxy-1-phenyl-pent-1-ene [P681] | 1.22 | – | –
Ethyl 3-ene-3-ferrocenyl-4,4-bis-(4-hydroxyphenyl)-butanoate [P64] | 1.16 | – | –
Methyl 6-ene-6-ferrocenyl-7,7-bis-(4-hydroxyphenyl)-heptanoate [P504] | 0.62 | – | –
N-{4-ferrocenyl-5,5-bis-(4-hydroxyphenyl)-pent-4-enyl}phthalimide [P686] | 0.2 | – | –
N-{5-ferrocenyl-6,6-bis-(4-hydroxyphenyl)-hex-5-enyl}phthalimide [P720] | 0.33 | – | –
